Laboratory results from paper PMC5592744 (Frontiers in Microbiology, 2017).

Legend:
Assay type in all cases: biochemical
Conditions in all cases: 76 μM chalcone, FRET assay
[1] = molecular target: V168A-SrtA (Staphylococcus aureus, UniProt Q2FV99, V168A)
[2] = molecular target: R197A-SrtA (Staphylococcus aureus, UniProt Q2FV99, R197A)
[3] = molecular target: I182A-SrtA (Staphylococcus aureus, UniProt Q2FV99, I182A)

Measured: sensitivity of mutant SrtA to chalcone compared with WT-SrtA

O=C(/C=C/c1ccccc1)c1ccccc1 [chalcone]
significantly less sensitive: [1] | [2] | [3]
